Assay type in all cases: biochemical
One assay concerns the target T1, human MAGL (Homo sapiens, UniProt Q99685).
T1 construct: expressed in transfected cells; host or cells: HEK293T (transient transfection; membrane fraction)
T1 sequence (Q99685 1-303): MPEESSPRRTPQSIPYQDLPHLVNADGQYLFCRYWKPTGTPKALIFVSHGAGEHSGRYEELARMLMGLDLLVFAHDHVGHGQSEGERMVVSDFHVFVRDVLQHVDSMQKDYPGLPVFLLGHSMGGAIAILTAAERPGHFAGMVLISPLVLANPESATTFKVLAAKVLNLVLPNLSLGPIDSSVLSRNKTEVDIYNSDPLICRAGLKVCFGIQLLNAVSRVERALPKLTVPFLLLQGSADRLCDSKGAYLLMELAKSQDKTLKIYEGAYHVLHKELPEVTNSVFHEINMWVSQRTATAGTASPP
Briefly: MAGL activity assay (AA-HNA fluorogenic substrate). The following applies: 100 µM, AA-HNA substrate assay, Supplementary Table 1; read-out: MAGL Inhibition (%). As for the experimental part:
(§1) HEK293T cells were cultured at 37°C under 5% CO2 in a DMEM medium with stable glutamine and phenolred, containing 10% fetal bovine serum (FBS, Gibco), penicillin, and streptomycin. The cells were passaged every 2–3 days by resuspension in the medium at ∼90% confluence. The membranes used in this study were prepared from transiently transfected HEK293T cells. Briefly, 1 day prior to transfection, ∼10^7 cells were seeded in 15 cm plates, and then the cells were transfected by the addition of a mixture of polyethyleneimine and plasmid DNA (3:1, 60, and 20 µg) in 2 ml of medium (without serum). Of note, the empty pcDNA3.1 vector was used in the Mock-control. After 24 h, the medium was removed and the cells were refreshed with fresh medium. After 72 h, the cells were harvested by suspending in 20 ml of medium, and the supernatant was removed by centrifugation for 10 min at 1,000 rpm. The cell pellet was flash frozen in liquid nitrogen and stored at −80°C until use. Subsequently, the cell pellets were suspended in lysis buffer (30 mM Tirs, pH 7.5, 1 mM MgCl2, 25 U/ml Benzonase), which was homogenized by sonication (3 × 10 bursts) and incubated for 30 min on ice. The membrane fractions overexpressing MAGL/ABHD6/ABHD12 were separated by ultracentrifuge (100,000 g, 30 min, 4 C). The protein concentration was determined with a Qubit protein assay (Invitrogen). The protein samples were quickly frozen in liquid nitrogen and stored at −80 C until use.
The MAGL activity assay is based on the hydrolysis of 2-arachidonoylglycerol-based fluorogenic substrate by MAGL-overexpressing membrane preparations from transiently transfected HEK293T cells. In brief, the reactions were performed in HEPES buffer (40 mM HEPES, pH 7.5, 0.1 mg/ml BSA) in black, flat bottom 96-well plates. […] After the incubation of the inhibitor-protein complex for 30 min, 10 µl of the fluorogenic substrate (AA-HNA, 200 µM) was added and fluorescence was measured in 1 min intervals for 30 min on a plate reader (BioTek). […] All the measurements were performed in N = 2, n = 2 for inhibitors and N = 2, n = 4 for controls with Z′ value ≥0.6. The slope is determined in 5–15 min for all the experiments.

Another assay deals with T2, human ABHD6 (Homo sapiens, UniProt Q9BV23).
T2 construct: expressed in transfected cells; host or cells: HEK293T (transient transfection; membrane fraction)
T2 sequence (Q9BV23 1-337): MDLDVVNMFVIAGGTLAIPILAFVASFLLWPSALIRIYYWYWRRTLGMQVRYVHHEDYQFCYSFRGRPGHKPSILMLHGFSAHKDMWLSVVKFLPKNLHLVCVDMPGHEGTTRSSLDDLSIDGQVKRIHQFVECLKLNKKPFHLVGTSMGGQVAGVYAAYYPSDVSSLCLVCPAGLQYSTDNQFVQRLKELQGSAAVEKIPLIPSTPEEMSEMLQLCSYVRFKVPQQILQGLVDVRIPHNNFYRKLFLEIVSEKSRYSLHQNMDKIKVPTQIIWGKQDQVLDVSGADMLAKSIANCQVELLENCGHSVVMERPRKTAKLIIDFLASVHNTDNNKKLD
Briefly: ABHD6 activity assay (AA-HNA fluorogenic substrate). The following applies: 100 µM, AA-HNA substrate assay, Supplementary Table 2; read-out: ABHD6 Inhibition (%). On the procedure:
as §1
The MAGL activity assay is based on the hydrolysis of 2-arachidonoylglycerol-based fluorogenic substrate by MAGL-overexpressing membrane preparations from transiently transfected HEK293T cells. In brief, the reactions were performed in HEPES buffer (40 mM HEPES, pH 7.5, 0.1 mg/ml BSA) in black, flat bottom 96-well plates. The final protein concentration of membrane fractions from overexpressing human MAGL HEK293T cells was 12.5 μg/ml 5 µl of inhibitors were added from×40 concentrated DMSO stocks in the 96-well plate containing 145 µl assay buffer, followed by the addition of 40 µl of the protein (12.5 μg/ml). After the incubation of the inhibitor-protein complex for 30 min, 10 µl of the fluorogenic substrate (AA-HNA, 200 µM) was added and fluorescence was measured in 1 min intervals for 30 min on a plate reader (BioTek). Final assay concentrations: 12.5 μg/ml MAGL, […], and […] in the total volume of 200 µl. All the measurements were performed in N = 2, n = 2 for inhibitors and N = 2, n = 4 for controls with Z′ value ≥0.6. The slope is determined in 5–15 min for all the experiments.
The ABHD6 activity assay is based on the same principle as the MAGL activity assay described earlier, but with human ABHD6 overexpressing membrane preparations at a final protein concentration of 50 μg/ml and 200 µM AA-HNA. Other conditions are the same as those of the MAGL activity assay.

The target of a further assay is T3, human ABHD12 (Homo sapiens, UniProt Q8N2K0).
T3 construct: expressed in transfected cells; host or cells: HEK293T (transient transfection; membrane fraction)
T3 sequence (Q8N2K0 1-398): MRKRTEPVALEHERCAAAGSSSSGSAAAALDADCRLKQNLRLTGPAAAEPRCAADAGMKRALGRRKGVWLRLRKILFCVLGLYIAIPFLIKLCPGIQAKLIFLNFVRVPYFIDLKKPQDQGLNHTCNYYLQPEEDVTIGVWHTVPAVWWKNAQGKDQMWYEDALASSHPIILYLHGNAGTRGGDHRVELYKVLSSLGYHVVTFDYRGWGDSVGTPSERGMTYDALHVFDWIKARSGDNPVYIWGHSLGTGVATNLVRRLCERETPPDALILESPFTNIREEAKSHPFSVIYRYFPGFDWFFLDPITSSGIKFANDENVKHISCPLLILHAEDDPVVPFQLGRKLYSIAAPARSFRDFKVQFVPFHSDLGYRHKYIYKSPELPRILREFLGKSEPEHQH
Briefly: ABHD12 activity by competitive ABPP with FP-TAMRA. The settings on record: 100 µM compound; competitive ABPP with probe FP-TAMRA (250 nM); read-out: ABHD12 Inhibition (%). On the procedure: as §1
The ABHD12 activity assay is based on competitive activity-based protein profiling (ABPP) with human ABHD12 overexpressing membrane fractions. Briefly, the membrane proteome (1 mg/ml, 20 µl) was incubated at room temperature with 0.5 µl DMSO (vehicle) or inhibitor for 30 min. Subsequently, the samples were treated with the activity-based probe FP-TAMRA (250 nM, final concentration) for 20 min. The reactions were then quenched by 10 µl sample buffer (×4) (final concentrations: 60 mM Tris, pH 6.8, 2% (w/v) SDS, 10% (v/v) glycerol, 5% (v/v) β-mercaptoethanol, 0.01% (v/v) bromophenol blue). The samples were directly loaded and resolved on SDS-PAGE gel (10% acrylamide), which were then scanned using a ChemiDoc MP system (Cy3 settings, BioRad).

Structures can show the parent of a compound that is named as a salt.

For the molecule `O=C(O)CCCc1c[nH]c2ccccc12` [compound 4, 3-Indolebutyric acid], the activity at 100 µM on human MAGL came out at 85.4%; at human ABHD6 it was 97.2%; at human ABHD12, 77.2%.

With `CC1(C)CC[C@]2(C(=O)O)CC[C@]3(C)C(=CC[C@@H]4[C@@]5(C)CC[C@H](O)C(C)(C)[C@@H]5CC[C@]43C)[C@@H]2C1` [compound 59, Oleanolic Acid], the activity at 100 µM on human MAGL came to 130%; on human ABHD6, 98.5%; at human ABHD12, 57.7%.

In the case of `O=C(CCc1ccc(O)cc1)c1c(O)cc(O)cc1O[C@@H]1O[C@H](CO)[C@@H](O)[C@H](O)[C@H]1O` [compound 67, Phlorizin], the activity at 100 µM on human MAGL was 75.9%; at human ABHD6, 116%; at human ABHD12, 96.7%.

With `COc1ccc2ccc(=O)oc2c1CC=C(C)C` [compound 62, Osthole], the activity at 100 µM at human MAGL stood at 94.5%; on human ABHD6, 112%; on human ABHD12, 106%.

As for `C[C@H]1[C@@H](O)O[C@@H]2O[C@@]3(C)CC[C@H]4[C@H](C)CC[C@@H]1[C@@]24OO3` [compound 26, Dihydroartemisinin], the activity at 100 µM amounted to 92.5% on human MAGL, 89.2% at human ABHD6 and 81.1% at human ABHD12.

Turning to `O=C(O)c1cc(=O)[nH]c(=O)[nH]1` [compound 61, Orotic acid], the results for the activity at 100 µM on human MAGL, at human ABHD6 and at human ABHD12 were 101%, 113% and 97.2%, respectively.

Consider `CN(C)Cc1c[nH]c2ccccc12` [compound 35, Gramine], for which the activity at 100 µM stood at 97.3% at human MAGL, 99% on human ABHD6 and 82.7% on human ABHD12.

Regarding `COc1ccc(-c2oc3c(CC=C(C)C)c(O[C@@H]4O[C@H](CO)[C@@H](O)[C@H](O)[C@H]4O)cc(O)c3c(=O)c2O[C@@H]2O[C@@H](C)[C@H](O)[C@@H](O)[C@H]2O)cc1` [compound 41, Icariin], the values for the activity at 100 µM at human MAGL, at human ABHD6 and on human ABHD12 were 84%, 84.6% and 66%, respectively.

As to `COc1ccc(CCC(=O)c2c(O)cc(O[C@@H]3O[C@H](CO)[C@@H](O)[C@H](O)[C@H]3O[C@@H]3O[C@@H](C)[C@H](O)[C@@H](O)[C@H]3O)cc2O)cc1O` [compound 56, Neohesperidin dihydrochalcone], the activity at 100 µM on human MAGL worked out at 87.4%; at human ABHD6, 105%; at human ABHD12 it was 83.1%.

Regarding `C[N+](C)(C)CC(O)CC(=O)O` (racemic) [compound 27, DL-Carnitine HCl], the activity on human MAGL is 97.6%; at human ABHD6, 88.9%; at human ABHD12 it was 76.6%.

For the molecule `O=C(O)[C@H]1O[C@@H](Oc2cc3oc(-c4ccccc4)cc(=O)c3c(O)c2O)[C@H](O)[C@@H](O)[C@@H]1O` [compound 15, Baicalin], the activity at 100 µM was found to be 80.3% at human MAGL, 121% on human ABHD6 and 85.9% on human ABHD12.

As for `CC1(C)[C@@H](O)CC[C@]2(C)[C@H]3C(=O)C=C4[C@@H]5C[C@@](C)(C(=O)O)CC[C@]5(C)CC[C@@]4(C)[C@]3(C)CC[C@@H]12` [compound 30, Enoxolone], the activity at 100 µM is 95.9% on human MAGL, 92% at human ABHD6 and 89.1% on human ABHD12.

In the case of `CC1(C)O[C@H]2CC(=O)OC[C@]23[C@H]2CC[C@@]4(C)[C@H](c5ccoc5)OC(=O)[C@H]5O[C@]54[C@]2(C)C(=O)C[C@@H]13` [compound 46, Limonin], the activity at 100 µM on human MAGL came out at 90.6%; at human ABHD6 it was 103%; at human ABHD12, 83.1%.

Consider `COc1ccc([C@@H]2CC(=O)c3c(O)cc(O)cc3O2)cc1O` [compound 37, Hesperetin], for which the activity at 100 µM was determined as 90.9% at human MAGL, 104% on human ABHD6 and 83.6% at human ABHD12.

Take `O=c1c(O)c(-c2ccc(O)c(O)c2)oc2cc(O)ccc12` [compound 29, Fisetin]: the values for the activity at 100 µM at human MAGL, on human ABHD6 and on human ABHD12 were 76.2%, 82.4% and 51.9%, respectively.

`O=C1CCC[C@@H]2[C@H]3CCC[N+]4([O-])CCC[C@@H](CN12)[C@@H]34` (stereo partly drawn) [compound 63, Oxymatrine]: the activity at 100 µM on human MAGL came out at 99.9%; at human ABHD6 it was 102%; at human ABHD12, 91.3%.

Turning to `O=[N+]([O-])c1ncc[nH]1` [compound 13, Azomycin], the values for the activity at 100 µM on human MAGL, on human ABHD6 and on human ABHD12 were 89.9%, 112% and 87.7%, respectively.

On to `COc1ccc(-c2cc(=O)c3c(OC)c(OC)c(OC)c(OC)c3o2)cc1OC` [compound 58, Nobiletin], for which the figures for the activity at 100 µM at human MAGL, at human ABHD6 and at human ABHD12 were 83.4%, 100% and 75.6%, respectively.

As for `O=c1cc(-c2ccccc2)oc2cc(O)c(O)c(O)c12` [compound 14, Baicalein], the activity at 100 µM turned out to be 64.3% at human MAGL, 131% on human ABHD6 and 82.7% on human ABHD12.

Regarding `OC[C@H]1O[C@@H](Oc2ccc(O)cc2)[C@H](O)[C@@H](O)[C@@H]1O` [compound 10, Arbutin], the activity at 100 µM amounted to 84.2% at human MAGL, 83.2% on human ABHD6 and 66.6% at human ABHD12.

For the origin of these results see publication PMC9465256, “Discovering monoacylglycerol lipase inhibitors by a combination of fluorogenic substrate assay and activity-based protein profiling” (Frontiers in Pharmacology, 2022).
